# pIC50: −log10 of the molar value.
# Biological target: T1, recombinant human Flag-tagged PARP7 (amino acids 456-657) (Homo sapiens, UniProt Q7Z3E1)
# T1 construct: recombinant human Flag-tagged PARP7 (amino acids 456-657)
# T1 sequence (Q7Z3E1 456-657): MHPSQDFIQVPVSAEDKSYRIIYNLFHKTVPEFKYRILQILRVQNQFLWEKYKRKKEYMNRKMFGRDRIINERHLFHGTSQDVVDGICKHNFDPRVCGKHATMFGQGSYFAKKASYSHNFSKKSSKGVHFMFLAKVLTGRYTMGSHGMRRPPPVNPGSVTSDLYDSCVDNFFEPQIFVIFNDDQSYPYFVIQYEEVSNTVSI
# Assay: PARP7 biochemical DELFIA assay (auto-MARylation)
# Details: DELFIA readout, IC50 class
# Experimental: A suitable assay may be conducted using 10-30 nM PARP7 (amino acids 456-657), 2 μM biotin-NAD assay solution in 20 mM HEPES (pH 7.5), 100 mM NaCl, 2 mM DTT, 0.1% BSA (w/v), 0.02% Tween (v/v) assay buffer. MARylation may take place for 2-3 h at room temperature and may be detected using a dissociation-enhanced lanthanide fluorescence immunoassay (DELFIA) readout. This assay format has been recently utilised for screening for modulators of PARP7 and other MonoPARP enzymes ([…]. et al. Forced Self-Modification Assays as a Strategy to Screen MonoPARP Enzymes. SLAS Discovery. 25; 241-252, (2020)). A particularly suitable assay is described in the Examples below. Optiplate HB 384-well plates were coated with anti-FLAG antibody, supplied as a 4 mg/ml solution, using a Na2CO3/HCO3 coating buffer at pH 9.6, overnight at 4° C., in order to achieve a final immobilisation per well of 0.3 μg. Wells were then washed 3× in coating wash buffer (PBS/0.05% Tween (v/v)), blocked with 2% BSA (w/v) in coating wash buffer and washed 3 further times prior to assay. For the assay 20 μl of 12.5-37.5 nM recombinant human Flag-tagged PARP7 (amino acids 456-657) was added to each well of the 384-well plate for 30 min at room temperature. 50 nl of test compound in DMSO was added using pintool technology and plates were incubated for a further 30 min at room temperature. 5 μl of 15 μM biotin-NAD^+ assay solution in 20 mM HEPES (pH 7.5), 100 mM NaCl, 2 mM DTT, 0.1% BSA (w/v), 0.02% Tween (v/v) assay buffer was then added and MARylation proceeded for 2-3 h at room temperature prior to the addition of 5 μl of 12 mM NAD^+ quenching solution. After 30 min at room temperature, assay solution was removed and following washing 5 times, 100 μl of a 1:1000 dilution of DELFIA Eu-N1 Streptavidin reagent was added. Plates were then incubated for 30 min at room temperature. Reaction mixture was removed and plates washed 5 times prior to the addition of 25 μl DELFIA enhancement solution. Following incubation for 30 min at room temperature, fluorescence was read on either an Envision or Pherastar FS (Ex337 nm, Em620 nm).
row,Structure (SMILES),pIC50
1,"CC(COCCC(=O)N1CCN(c2ncc(C#N)cn2)CC1)n1nc(C(F)(F)F)c2c(=O)[nH]ncc21 (single isomer, unassigned) [Compound 321, 2-(4-(3-(2-(4-oxo-3-(trifluoromethyl)-4,5-dihydro-1H-pyrazolo[3,4-d]pyridazin-1-yl)propoxy)propanoyl)piperazin-1-yl) pyrimidine-5-carbonitrile]",≥ 7.00
2,"CC(COCCC(=O)N1CCN(c2ncc(C#N)cn2)CC1)n1nc(C(F)(F)F)c2c(=O)[nH]ncc21 (single isomer, unassigned) [Compound 322, 2-(4-(3-(2-(4-oxo-3-(trifluoromethyl)-4,5-dihydro-1H-pyrazolo[3,4-d]pyridazin-1-yl)propoxy)propanoyl)piperazin-1-yl) pyrimidine-5-carbonitrile]",≥ 7.00
3,"CC(COCCC(=O)N1CCN(c2cnc(C(F)F)cn2)CC1)n1nc(C(F)(F)F)c2c(=O)[nH]ncc21 (single isomer, unassigned) [Compound 323]",≥ 7.00
4,"CC(COCCC(=O)N1CCN(c2cnc(C(F)F)cn2)CC1)n1nc(C(F)(F)F)c2c(=O)[nH]ncc21 (single isomer, unassigned) [Compound 324]",≥ 7.00
5,"CNC(=O)c1cnc(N2CCN(C(=O)CCOCC(C)n3nc(C(F)(F)F)c4c(=O)[nH]ncc43)CC2)nc1 (single isomer, unassigned) [Compound 326]",≥ 7.00
6,"CC(CCOCC(=O)N1CCN(c2ncc(C(F)(F)F)cn2)CC1)n1nc(C(F)(F)F)c2c(=O)[nH]ncc21 (single isomer, unassigned) [Compound 327, 1-(4-(2-oxo-2-(4-(5-(trifluoromethyl)pyrimidin-2-yl)piperazin-1-yl)ethoxy)butan-2-yl)-3-(trifluoromethyl)-1,5-dihydro-4H-pyrazolo[3,4-d]pyridazin-4-one]",≥ 7.00
7,"CC(CCOCC(=O)N1CCN(c2ncc(C(F)(F)F)cn2)CC1)n1nc(C(F)(F)F)c2c(=O)[nH]ncc21 (single isomer, unassigned) [Compound 328, 1-(4-(2-oxo-2-(4-(5-(trifluoromethyl)pyrimidin-2-yl)piperazin-1-yl)ethoxy)butan-2-yl)-3-(trifluoromethyl)-1,5-dihydro-4H-pyrazolo[3,4-d]pyridazin-4-one]",≥ 7.00
8,"COc1cnc(N2CCN(C(=O)CCOCC(C)n3nc(C(F)(F)F)c4c(=O)[nH]ncc43)CC2)nc1 (single isomer, unassigned) [Compound 331]",≥ 7.00
9,"COc1cnc(N2CCN(C(=O)CCOCC(C)n3nc(C(F)(F)F)c4c(=O)[nH]ncc43)CC2)nc1 (single isomer, unassigned) [Compound 332]",≥ 7.00
10,"Cc1nn(C(C)COCCC(=O)N2CCN(c3ncc(Cl)cn3)CC2)c2cn[nH]c(=O)c12 (single isomer, unassigned) [Compound 335]",≥ 7.00
11,"CCC(COCCC(=O)N1CCN(c2ncc(C(F)(F)F)cn2)CC1)n1cc(C(F)(F)F)c2c(=O)[nH]ncc21 (single isomer, unassigned) [Compound 338]",≥ 7.00
12,"CCC(COCCC(=O)N1CCN(c2ncc(C(F)(F)F)cn2)CC1)n1cc(C(F)(F)F)c2c(=O)[nH]ncc21 (single isomer, unassigned) [Compound 339]",≥ 7.00
13,"CC(COCCC(=O)N1CCN(c2noc(C(F)(F)F)n2)CC1)n1nc(C(F)(F)F)c2c(=O)[nH]ncc21 (single isomer, unassigned) [Compound 344]",≥ 7.00
14,"CC(COCCC(=O)N1CCN(c2ncc(F)cc2F)CC1)n1nc(C(F)(F)F)c2c(=O)[nH]ncc21 (single isomer, unassigned) [Compound 350]",≥ 7.00
15,"CC(COCCC(=O)N1CCN(c2ncccc2Cl)CC1)n1nc(C(F)(F)F)c2c(=O)[nH]ncc21 (single isomer, unassigned) [Compound 356]",6.00 to 7.00
16,"Cc1c(C)n(C(C)COCCC(=O)N2CCN(c3ncc(C(F)(F)F)cn3)CC2)c2cn[nH]c(=O)c12 (single isomer, unassigned) [Compound 365]",≥ 7.00
17,"Cc1c(C)n(C(C)COCCC(=O)N2CCN(c3ncc(C(F)(F)F)cn3)CC2)c2cn[nH]c(=O)c12 (single isomer, unassigned) [Compound 366]",≥ 7.00

row,Structure (SMILES),pIC50
1,"CC(COCCC(=O)N1CCN(c2ncccc2F)CC1)n1nc(C(F)(F)F)c2c(=O)[nH]ncc21 (single isomer, unassigned) [Compound 368]",6.00 to 7.00
2,"CC1CN(c2ncc(C(F)(F)F)cn2)CCN1C(=O)CCOCCn1cc(C(F)(F)F)c2c(=O)[nH]ncc21 (single isomer, unassigned) [Compound 370]",≥ 7.00
3,"CC1CN(c2ncc(C(F)(F)F)cn2)CCN1C(=O)CCOCCn1cc(C(F)(F)F)c2c(=O)[nH]ncc21 (single isomer, unassigned) [Compound 371]",≥ 7.00
4,"CC(COCCC(=O)N1CCN(c2ccc(Cl)cn2)CC1)n1cc(C(F)(F)F)c2c(=O)[nH]ncc21 (single isomer, unassigned) [Compound 375]",≥ 7.00
5,"CC(COCCC(=O)N1CCN(c2ncc(OC(F)(F)F)cn2)CC1)n1nc(C(F)(F)F)c2c(=O)[nH]ncc21 (single isomer, unassigned) [Compound 387]",≥ 7.00
6,"CC(COCCC(=O)N1CCN(c2nnc(C(F)(F)F)[nH]2)CC1)n1nc(C(F)(F)F)c2c(=O)[nH]ncc21 (single isomer, unassigned) [Compound 393]",≥ 7.00
7,"CC(COCCC(=O)N1CCN(c2ncc(C(F)(F)F)cn2)CC1)n1cc(C(F)F)c2c(=O)[nH]ncc21 (single isomer, unassigned) [Compound 395, 3-(difluoromethyl)-1-(1-(3-oxo-3-(4-(5-(trifluoromethyl)pyrimidin-2-yl)piperazin-1-yl)propoxy)propan-2-yl)-1,5-dihydro-4H-pyrrolo[2,3-d]pyridazin-4-one]",≥ 7.00
8,"CC(COCCC(=O)N1CCN(c2ncc(C(F)(F)F)cn2)CC1)n1cc(C(F)F)c2c(=O)[nH]ncc21 (single isomer, unassigned) [Compound 396, 3-(difluoromethyl)-1-(1-(3-oxo-3-(4-(5-(trifluoromethyl)pyrimidin-2-yl)piperazin-1-yl)propoxy)propan-2-yl)-1,5-dihydro-4H-pyrrolo[2,3-d]pyridazin-4-one]",≥ 7.00
9,"CC(COCCC(=O)N1CCN(c2ncccc2C#N)CC1)n1nc(C(F)(F)F)c2c(=O)[nH]ncc21 (single isomer, unassigned) [Compound 405]",6.00 to 7.00
10,"CC(COCCC(=O)N1CCN(c2ncccc2C#N)CC1)n1nc(C(F)(F)F)c2c(=O)[nH]ncc21 (single isomer, unassigned) [Compound 406]",≥ 7.00
11,"CC(COCCn1cc(C(F)(F)F)c2c(=O)[nH]ncc21)C(=O)N1CCN(c2ncc(C(F)(F)F)cn2)CC1 (single isomer, unassigned) [Compound 411]",≥ 7.00
12,"CC(COCCC(=O)N1CCN(c2ncc(C#N)cn2)CC1)c1ccc(Cl)c2c(=O)[nH]ncc12 (single isomer, unassigned) [Compound 414]",6.00 to 7.00
13,"CC(COCCC(=O)N1CCN(c2ccc(C#N)cn2)CC1)c1ccc(Cl)c2c(=O)[nH]ncc12 (single isomer, unassigned) [Compound 416]",≥ 7.00
14,"CC(COCCC(=O)N1CCN(c2cc(F)c(F)cn2)CC1)n1nc(C(F)(F)F)c2c(=O)[nH]ncc21 (single isomer, unassigned) [Compound 418]",≥ 7.00
15,"CC(COCCC(=O)N1CCN(c2cc(F)c(F)cn2)CC1)n1nc(C(F)(F)F)c2c(=O)[nH]ncc21 (single isomer, unassigned) [Compound 419]",≥ 7.00
16,"[2H]C([2H])(OCCC(=O)N1CCN(c2ncc(C#N)cn2)CC1)C(C)n1nc(C(F)(F)F)c2c(=O)[nH]ncc21 (single isomer, unassigned) [Compound 420, 2-(4-(3-(2-(4-oxo-3-(trifluoromethyl)-4,5-dihydro-1H-pyrazolo[3,4-d]pyridazin-1-yl)propoxy-1,1-d2)propanoyl)piperazin-1-yl)pyrimidine-5-carbonitrile]",≥ 7.00
17,"[2H]C([2H])(OCCC(=O)N1CCN(c2ncc(C#N)cn2)CC1)C(C)n1nc(C(F)(F)F)c2c(=O)[nH]ncc21 (single isomer, unassigned) [Compound 421, 2-(4-(3-(2-(4-oxo-3-(trifluoromethyl)-4,5-dihydro-1H-pyrazolo[3,4-d]pyridazin-1-yl)propoxy-1,1-d2)propanoyl)piperazin-1-yl)pyrimidine-5-carbonitrile]",≥ 7.00
